Results on six compounds are retold here after publication PMC9825896, “Discovery of an L‐like Configuration for 3’‐Fluoro‐5’‐norcarbonucleoside Phosphonates as Potent Anti‐HIV Agents” (Chemmedchem, 2022).

Data set [1] in a line: Cytotoxicity in uninfected PHA-P PBMC by MTT assay. The data set is classed as cell-based, human. The following applies: human. As for the experimental part: (§1) Peripheral blood mononuclear cells (PBMC) from healthy donors were isolated and stimulated for 3 days with […] of phytohemagglutinin‐P (PHA‐P, Sigma) and 5 IU/mL of recombinant human interleukin‐2 (rHuIL‐2, Roche). PBMC were growth under CO2 in a humid atmosphere at 37 °C in RPMI‐1640 GlutaMAX medium supplemented with antibiotics (penicillin, streptomycin, neomycin), 10 % fetal calf serum (FCS, previously inactivated by heat) and 10 UI/mL of rHuIL‐2. The HIV‐1 LAI strain was previously described.[19] Resistant viral strains are from the NIH AIDS Research & Reference Reagent Program (HIV‐1–52534‐2, HIV‐1–56252‐1, HIV‐1–71361‐1, and HIV‐1–7324‐1) carry mutations in RT.[16]
(§2) PHA‐P activated PBMCs (1.5×10^5 cells) were pre‐treated for 30 min by increasing concentrations of the various compounds to be tested and then infected with […] infectious tissue culture doses 50 % (TCID50) of the HIV‐1‐LAI. Supernatants were collected at day 7 post infection and stored at ‐ 20 °C. Viral replication was measured by quantifying reverse transcriptase activity in cell culture supernatants by the use of Lenti kit RT (Cavidi). Cytotoxicity of the compounds was evaluated in uninfected PHA‐P PBMC by MTT assay (Promega) on day 7. Experiments were performed in triplicate and repeated with another blood donors. Data analyses were performed using SoftMax® Pro 4.6 software (Molecular Devices). Percent of inhibition of RT activity or cell viability were plotted versus compound concentration and fitted with quadratic curves to determine 50 % effective concentration (EC50) and 50 % cytotoxic concentration (CC50). The viral resistant strains were amplified and the viral stocks titrated using cells of the H9 line.[20] More specifically, with regard to the antiviral test, the cells were distributed in the wells of 96‐well microplates at the rate of 50,000 cells per well. They were then pretreated for 30 minutes with increasing concentrations of the various compounds to be tested and then infected with 125 TCID50 of the various resistant strains. Seven and 14 days after infection, culture supernatants were collected and frozen at −20 ° C until measurement of viral replication via quantification of the enzymatic activity of the TI. The EC50 was calculated as previously described. A possible cytotoxicity of the molecules towards the cells of the H9 line was assessed by microscopic observation throughout the cell cultures.
(Tetrazolium assays rely on reduction of a dye to a coloured formazan, in cell work by metabolically active cells.)

Data set [2] relates to human peripheral blood mononuclear cells (PBMC). Nature of the data set: Cytotoxicity in uninfected PHA-P PBMC by MTT assay. Type of data set: cell-based. As to the method: as §1, §2
For data set [3], the system named is HIV‐1 LAI strain. Nature of the data set: Anti-HIV-1 LAI activity in PHA-P activated PBMC (RT activity in supernatants). The data set is classed as cell-based. The following applies: for pEC50: read-out: EC50, effective concentration of drug required to reduce viral replication by 50 %. As for the experimental part:
as §1, §2

The test system of the next data set is HIV‐1‐52534‐2. Nature of the data set: Anti-HIV-1 activity in T CD4+ H9 cells, resistant strain 52534-2. The data set is classed as cell-based. The following applies: strain 52534‐2, T CD4+ H9 cells; for pEC50: Human immunodeficiency virus 1, mean from three experiments. As for the experimental part:
as §1, §2

In the next data set the test system is HIV‐1‐7324‐1. In words: Anti-HIV-1 activity in T CD4+ H9 cells, resistant strain 7324-1. The data set is classed as cell-based. The following applies: Human immunodeficiency virus 1; strain 7324‐1, T CD4+ H9 cells, mean from three experiments. As for the experimental part:
as §1, §2

The subject of the next data set is HIV‐1‐56252‐1. Nature of the data set: Anti-HIV-1 activity in T CD4+ H9 cells, resistant strain 56252-1. The data set is classed as cell-based. The following applies: Human immunodeficiency virus 1; strain 56252‐1, T CD4+ H9 cells, mean from three experiments. As for the experimental part: as §1, §2
The test system of the next data set is HIV‐1‐71361‐1. In words: Anti-HIV-1 activity in T CD4+ H9 cells, resistant strain 71361-1. The data set is classed as cell-based. The following applies: Human immunodeficiency virus 1, H9. As for the experimental part: as §1, §2
Another data set relates to HIV‐1 LAI. Nature of the data set: Anti-HIV-1 activity in T CD4+ H9 cells, LAI reference strain. The data set is classed as cell-based. The following applies: Human immunodeficiency virus 1, mean from three experiments. As for the experimental part:
as §1, §2

Data set [4] relates to HIV‐1 LAI strain. The following applies: ref 4b, cited from earlier work; for SI = CC50/EC50: HIV-1 LAI in PBMC; for pEC50: read-out: EC50, effective concentration of drug required to reduce viral replication by 50 %, HIV-1 LAI in human PBMC.
Data set [5] has as its system human peripheral blood mononuclear cells (PBMC). More on the design: method as in earlier work. The following applies: ref 4b, cited from earlier work; for CC50: read-out: CC50, cytotoxic concentration of drug required to reduce cell growth by 50 %.
Where [6] appears, read: uninfected PBMC, MTT, day 7, mean from 3 blood donors, read-out: CC50, cytotoxic concentration of drug required to reduce cell growth by 50 %.
Where [7] appears, read: Human immunodeficiency virus 1, 168 h, HIV-1 LAI in human PBMC, day 7 post infection, mean from 3 blood donors.
[8] abbreviates: Human immunodeficiency virus 1, PBMC, 168 h.

Structures are written as SMILES. pEC50: −log10 of the molar value. Like-named read-outs stand apart in the source and are kept apart here. A value given as a limit tells only on which side of the number the result lay.

For `Nc1ncnc2c1ncn2[C@H]1C=C(F)[C@@H](OCP(=O)(O)O)C1` [(+)‐1], the CC50 at 7 days in data set [1] (setting [6]) is no less than 10000 nM. Besides, the “cytotoxicity (in words)” value in data set [2] (PBMC) is reported as “No cytotoxicity”. Besides, the “SI = CC50/EC50” value in the data set with HIV‐1 LAI strain [3] (HIV-1 LAI in PBMC) is no less than 2.32. The pEC50 in the data set with HIV‐1 LAI strain [3] (setting [7]) was 5.37.

Consider `CC(C)(C)C(=O)OCOP(=O)(CO[C@@H]1C[C@H](n2cnc3c(N)ncnc32)C=C1F)OCOC(=O)C(C)(C)C` [(−)‐9, bis‐(Pivaloyloxymethyl)‐((1’R,4’S)‐4‐(6‐amino‐9H‐purin‐9‐yl)‐2‐fluorocyclopent‐2‐en‐1‐yl)oxymethyl‐phosphonate], for which the pEC50 is 6.24 in the data set with HIV‐1‐52534‐2; 8.00 with HIV‐1‐7324‐1; 7.05 with HIV‐1‐56252‐1; 6.96 in the data set with HIV‐1‐71361‐1; 6.96 in the data set with HIV‐1 LAI; 7.20 in the data set with HIV‐1 LAI strain [3] (setting [8]). In addition, in the data set on HIV‐1‐52534‐2, the “antiviral activity (in words)” value is recorded as “remains significantly active”. Moreover, the CC50 at 7 days in data set [1] was determined as 5200 nM. The “cytotoxicity (in words)” value in data set [2] was “some cytotoxicity”. Also, in the data set with HIV‐1 LAI strain [3] (HIV-1 LAI in PBMC, EC50 ratio versus D-like bis(POM) prodrug), the “anti‐HIV‐1 activity, fold greater than that of the D‐like enantiomer” value turned out to be 8 fold. The “anti‐HIV‐1 activity, fold greater than Tenofovir” value with HIV‐1 LAI strain [3] (HIV-1 LAI in PBMC, EC50 ratio versus Tenofovir) came to 17 fold.

On to `CC(C)(C)C(=O)OCOP(=O)(CO[C@H]1C[C@@H](n2cnc3c(N)ncnc32)C=C1F)OCOC(=O)C(C)(C)C` [(+)‐9, bis‐(Pivaloyloxymethyl)‐((1’S,4’R)‐4‐(6‐amino‐9H‐purin‐9‐yl)‐2‐fluorocyclopent‐2‐en‐1‐yl)oxymethyl‐phosphonate], for which the pEC50 with HIV‐1‐52534‐2 was no more than 5.00; in the data set on HIV‐1‐7324‐1, 6.62; in the data set with HIV‐1‐56252‐1 it was 6.02; in the data set with HIV‐1‐71361‐1, 6.17; in the data set with HIV‐1 LAI, 5.73; in the data set with HIV‐1 LAI strain [3] (setting [8]), 6.29. The CC50 at 7 days in data set [1] is no less than 10000 nM.

Turning to `C[C@H](Cn1cnc2c(N)ncnc21)OCP(=O)(O)O` [(R)‐PMPA, reference compound], the pEC50 was 5.21 in the data set with HIV‐1‐52534‐2; 7.00 in the data set on HIV‐1‐7324‐1; 5.78 in the data set with HIV‐1‐56252‐1; 7.00 in the data set with HIV‐1‐71361‐1; 6.89 in the data set on HIV‐1 LAI; 5.96 in the data set with HIV‐1 LAI strain [4]. Moreover, the “SI = CC50/EC50” value in the data set with HIV‐1 LAI strain [4] is on record as no less than 9.1; in the data set on HIV‐1 LAI strain [4] (listed as Tenofovir) it was 9.1. Also, the CC50 in data set [5] is no less than 10000 nM.

Consider `Nc1ncnc2c1ncn2[C@@H]1C=C(F)[C@H](OCP(=O)(O)O)C1` [(−)‐1], for which the pEC50 in the data set on HIV‐1‐52534‐2 was no more than 5.00; in the data set with HIV‐1‐7324‐1, 6.38; in the data set on HIV‐1‐56252‐1 it was 6.16; with HIV‐1‐71361‐1 it was 6.05; in the data set on HIV‐1 LAI, 6.48; with HIV‐1 LAI strain [3] (setting [7]) it was 6.72. In [1] (setting [6]), the CC50 at 7 days was no less than 10000 nM. Besides, in data set [2] (PBMC), the “cytotoxicity (in words)” value was “No cytotoxicity”. Also, the “SI = CC50/EC50” value in the data set with HIV‐1 LAI strain [3] (HIV-1 LAI in PBMC) is on record as no less than 52.6.

With `Nc1ncnc2c1ncn2[C@H]1C=C(F)[C@@H](OCP(=O)(O)O)C1` (racemic) [(±)‐1], the pEC50 in the data set with HIV‐1‐52534‐2 was no more than 5.00; with HIV‐1‐7324‐1, 6.77; in the data set on HIV‐1‐56252‐1, 5.00; in the data set on HIV‐1‐71361‐1 it was 5.43; in the data set on HIV‐1 LAI, 6.18; with HIV‐1 LAI strain [4], 6.06. The CC50 in data set [5] was no less than 10000 nM. Also, in data set [5], the “cytotoxicity (in words)” value was “without additional cytotoxicity”.
